Assays:
[1] = molecular target: T1, BRD4 BD2 (Homo sapiens, UniProt O60885); assay: AlphaScreen binding assay, BRD4 Bromodomain 2
T1 construct: made in house
Summary of the method: (§1)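 Compound dilution series were mixed with His-tagged BRD4 bromodomain and biotinylated tetra-acetylated H4 (1-21) peptide at pH 7.3 (BD1 and peptide at 50 nM, BD2 and peptide at 100 nM). Donor and acceptor beads were then added, and plates were equilibrated at least 1 h before reading. IC50 values were fitted with a four-parameter logistic model.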

[2] = test system: MV4-11 cells; assay: Oncology cell growth assay (3-day proliferation, CellTiter-Glo); assay type: cell-based; conditions: Homo sapiens, MV4-11, 72 h, AML cell line MV4-11, 72 hours, compounds grouped by IC50 range, read-out: MV4-11 IC50 (inhibition of proliferation, gIC50)
Summary of the method: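 A 3-day proliferation test used MV4-11 cells seeded at 3000 per well with eight compound concentrations (10 μM top, 3-fold dilution) at 37° C in 5% CO2. CellTiter-Glo luminescence defined viable cell signal. A four-parameter logistic curve against DMSO and background wells gave the gIC50.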

[3] = molecular target: T2, BRD4 BD1 (Homo sapiens, UniProt O60885); assay: AlphaScreen binding assay, BRD4 Bromodomain 1
T2 construct: made in house
Summary of the method: as §1

## CC(=O)N1c2ccc(-c3ccc(NS(C)(=O)=O)cc3)cc2N(C(=O)OC2CCC(F)(F)CC2)C[C@@H]1C [Example I-31, (S)-4,4-difluorocyclohexyl 4-acetyl-3-methyl-7-(4-(methylsulfonamido)phenyl)-3,4-dihydroquinoxaline-1(2H)-carboxylate]
[1]
  IC50: 50 to 500 nM
[2]
  IC50: 100 to 500 nM
[3]
  IC50: 100 to 1000 nM

## COC(=O)N1c2ccc(-c3cnn(CC(C)(C)O)c3)cc2N(C(=O)OC(C)C)C[C@@H]1C [Example I-329]
[1]
  IC50: 50 to 500 nM
[2]
  IC50: 100 to 500 nM
[3]
  IC50: 100 to 1000 nM

## CC(=O)N1c2ccc(-c3ccc4c(ccn4C)c3)cc2N(C(=O)c2ccco2)C[C@@H]1C [Example I-796]
[1]
  IC50: < 50 nM
[2]
  IC50: 100 to 500 nM
[3]
  IC50: 100 to 1000 nM

## COC(=O)N1c2ccc(-c3ccc(C(=O)N4CC[C@H](N(C)C)C4)cc3)cc2N(C(=O)OC(C)C)C[C@@H]1C [Example I-567]
[1]
  IC50: 50 to 500 nM
[2]
  IC50: 100 to 500 nM
[3]
  IC50: 100 to 1000 nM

## COc1ccc(-c2ccc3c(c2)N(C(=O)OC2CCCCC2)C[C@H](C)N3C(C)=O)cc1NS(C)(=O)=O [Example I-1271]
[1]
  IC50: 50 to 500 nM
[2]
  IC50: < 100 nM
[3]
  IC50: 100 to 1000 nM

## CC(=O)N1c2ccc(-c3cccc(S(=O)(=O)N(C)C)c3)cc2N(C(=O)C2CCC2)C[C@@H]1C [Example I-1047]
[1]
  IC50: 50 to 500 nM
[2]
  IC50: > 500 nM
[3]
  IC50: 1000 to 10000 nM

## COc1ccc(OC(=O)N2C[C@H](C)N(C(C)=O)c3ccc(-c4cnn(C5CC5)c4)cc32)cn1 [Example I-1199]
[1]
  IC50: 50 to 500 nM
[2]
  IC50: 100 to 500 nM
[3]
  IC50: 100 to 1000 nM

## CC(=O)N1c2ccc(-c3cnn(CCC#N)c3)cc2N(C(=O)Oc2ccccn2)C[C@@H]1C [Example I-1326]
[1]
  IC50: 50 to 500 nM
[2]
  IC50: 100 to 500 nM
[3]
  IC50: 100 to 1000 nM

## CC(=O)N1c2ccc(-c3cnn(C4CNC4)c3)cc2N(C(=O)C2CC2)C[C@@H]1C [Example I-360]
[1]
  IC50: < 50 nM
[2]
  IC50: 100 to 500 nM
[3]
  IC50: < 100 nM

## COC(=O)N1c2ccc(-c3cnn(CCn4ccnc4)c3)cc2N(C(=O)OC(C)C)C[C@@H]1C [Example I-627]
[1]
  IC50: 50 to 500 nM
[2]
  IC50: > 500 nM
[3]
  IC50: 100 to 1000 nM

## CC(=O)N1c2ccc(-c3cnn(C4CC4)c3)cc2N(C(=O)Oc2cncc(F)c2)C[C@@H]1C [Example I-1189]
[1]
  IC50: 50 to 500 nM
[2]
  IC50: 100 to 500 nM
[3]
  IC50: 100 to 1000 nM

## CC(=O)N1c2ccc(-c3ccc(S(=O)(=O)NC(C)(C)C)cc3)cc2N(C(=O)OC2CCCCC2)C[C@@H]1C [Example I-1265]
[1]
  IC50: 50 to 500 nM
[2]
  IC50: 100 to 500 nM
[3]
  IC50: 100 to 1000 nM

## CC(=O)N1c2ccc(-c3cccc(NS(C)(=O)=O)c3)cc2N(C(=O)C2CC2)C[C@@H]1C [Example I-1043]
[1]
  IC50: 50 to 500 nM
[2]
  IC50: > 500 nM
[3]
  IC50: 1000 to 10000 nM

## CC(=O)N1c2ccc(-c3ccc(C(=O)N(C)CCN4CCCC4)cc3)cc2N(C(=O)OC(C)C)C[C@@H]1C [Example I-551]
[1]
  IC50: 50 to 500 nM
[2]
  IC50: 100 to 500 nM
[3]
  IC50: 100 to 1000 nM

## CC(C)OC(=O)N1C[C@H](C)N(C(=O)C2CC2)c2ccc(-c3cn(C)nn3)cc21 [Example I-482]
[1]
  IC50: > 500 nM
[2]
  IC50: > 500 nM
[3]
  IC50: 100 to 1000 nM

## CC(=O)Nc1cc2c(cc1-c1cnn(C3CC3)c1)N(C(=O)OC(C)C)C[C@H](C)N2C(C)=O [Example I-214, Isopropyl (S)-6-acetamido-4-acetyl-7-(1-cyclopropyl-1H-pyrazol-4-yl)-3-methyl-3,4-dihydroquinoxaline-1(2H)-carboxylate]
[1]
  IC50: 50 to 500 nM
[2]
  IC50: 100 to 500 nM
[3]
  IC50: 100 to 1000 nM

## COC(=O)N1c2ccc(-c3cnn(CC(=O)N(C)C4CC4)c3)cc2N(C(=O)OC(C)C)C[C@@H]1C [Example I-625]
[1]
  IC50: 50 to 500 nM
[2]
  IC50: > 500 nM
[3]
  IC50: 100 to 1000 nM

## COC(=O)N1c2ccc(-c3cnn(CCC#N)c3)cc2N(C(=O)Oc2ccc(F)cc2)C[C@@H]1C [Example I-1025]
[1]
  IC50: < 50 nM
[2]
  IC50: > 500 nM
[3]
  IC50: 100 to 1000 nM

## CC(=O)N1c2ccc(-c3cccc(NS(=O)(=O)N(C)C)c3)cc2N(C(=O)OC2CCCCC2)C[C@@H]1C [Example I-1273]
[1]
  IC50: 50 to 500 nM
[2]
  IC50: 100 to 500 nM
[3]
  IC50: 100 to 1000 nM

## CC(=O)N1c2ccc(-c3cnn(C4CC4)c3)cc2N(c2nc3ccccc3o2)C[C@@H]1C [Example I-44, (S)-1-(4-(benzo[d]oxazol-2-yl)-6-(1-cyclopropyl-1H-pyrazol-4-yl)-2-methyl-3,4-dihydroquinoxalin-1(2H)-yl)ethanone]
[1]
  IC50: 50 to 500 nM
[2]
  IC50: 100 to 500 nM
[3]
  IC50: 100 to 1000 nM

## CC(=O)N1c2ccc(-c3ccc4c(c3)CCN4S(C)(=O)=O)cc2N(C(=O)Oc2ccc(F)cc2)C[C@@H]1C [Example I-1026]
[1]
  IC50: 50 to 500 nM
[2]
  IC50: 100 to 500 nM
[3]
  IC50: 100 to 1000 nM

## CC(=O)N1c2cc(Br)c(-c3ccc(S(C)(=O)=O)cc3)cc2N(C(=O)OC(C)C)C[C@@H]1C [Example I-217, Isopropyl (S)-4-acetyl-6-bromo-3-methyl-7-(4-(methylsulfonyl)phenyl)-3,4-dihydroquinoxaline-1(2H)-carboxylate]
[1]
  IC50: > 500 nM
[2]
  IC50: > 500 nM
[3]
  IC50: 1000 to 10000 nM

## CC(=O)N1c2ccc(-c3cnc(N)cn3)cc2N(C(=O)c2ccco2)C[C@@H]1C [Example I-413]
[1]
  IC50: < 50 nM
[2]
  IC50: 100 to 500 nM
[3]
  IC50: 1000 to 10000 nM

## CCS(=O)(=O)c1cccc(-c2ccc3c(c2)N(C(=O)OC2CCCCC2)C[C@H](C)N3C(C)=O)c1 [Example I-1245]
[1]
  IC50: 50 to 500 nM
[2]
  IC50: 100 to 500 nM
[3]
  IC50: 100 to 1000 nM

## CCS(=O)(=O)Nc1ccc(-c2ccc3c(c2)N(C(=O)C2CC2)C[C@H](C)N3C(C)=O)cc1 [Example I-1135]
[1]
  IC50: 50 to 500 nM
[2]
  IC50: 100 to 500 nM
[3]
  IC50: 100 to 1000 nM

## CC(=O)N1c2ccc(-c3ccc(C(=O)NCC(N)=O)cc3)cc2N(C(=O)OC(C)C)C[C@@H]1C [Example I-534]
[1]
  IC50: 50 to 500 nM
[2]
  IC50: 100 to 500 nM
[3]
  IC50: 100 to 1000 nM

## CC(=O)N1c2ccc(-c3ccc(F)c(S(C)(=O)=O)c3)cc2N(C(=O)C2CCC2)C[C@@H]1C [Example I-1099]
[1]
  IC50: 50 to 500 nM
[2]
  IC50: > 500 nM
[3]
  IC50: 1000 to 10000 nM

## COC(=O)N1c2ccc(-c3ccc(C(=O)N4CC[C@H](O)C4)cc3)cc2N(C(=O)OC(C)C)C[C@@H]1C [Example I-575]
[1]
  IC50: 50 to 500 nM
[2]
  IC50: 100 to 500 nM
[3]
  IC50: 100 to 1000 nM

## CC(=O)N1c2ccc(-c3cnn(CCS(C)(=O)=O)c3)cc2N(C(=O)Oc2cccnc2)C[C@@H]1C [Example I-1279]
[1]
  IC50: 50 to 500 nM
[2]
  IC50: 100 to 500 nM
[3]
  IC50: 100 to 1000 nM

## CC(=O)N1c2ccc(-c3ccc(S(N)(=O)=O)c(F)c3)cc2N(C(=O)C2CC2)C[C@@H]1C [Example I-1297]
[1]
  IC50: 50 to 500 nM
[2]
  IC50: > 500 nM
[3]
  IC50: 1000 to 10000 nM

## CCCS(=O)(=O)c1ccc(-c2ccc3c(c2)N(C(=O)C2CCC2)C[C@H](C)N3C(C)=O)cc1 [Example I-1071]
[1]
  IC50: 50 to 500 nM
[2]
  IC50: 100 to 500 nM
[3]
  IC50: 1000 to 10000 nM

## COC(=O)N1c2ccc(-c3cnn(CC(N)=O)c3)cc2N(C(=O)OC(C)C)C[C@@H]1C [Example I-319]
[1]
  IC50: 50 to 500 nM
[2]
  IC50: > 500 nM
[3]
  IC50: 100 to 1000 nM

## CC(=O)N1c2cc(NS(C)(=O)=O)ccc2N(C(=O)OC(C)C)C[C@@H]1C [Example I-201, Isopropyl (S)-4-acetyl-3-methyl-6-(methylsulfonamido)-3,4-dihydro quinoxaline-1(2H)-carboxylate]
[1]
  IC50: > 500 nM
[2]
  IC50: > 500 nM
[3]
  IC50: > 10000 nM

From patent US10703764B2, “Benzopiperazine compositions as BET bromodomain inhibitors” (FORMA Therapeutics, Inc., priority 2013, dated 2020)
